Results from patent US6339077B1, “Substituted 4-benzylaminoquinolines and their hetero analogs, process for their preparation, pharmaceuticals containing these compounds and use thereof” (Aventis Pharma Deutschland GmbH, priority 1999, dated 2002).
Structures can show the parent of a compound that is named as a salt.

Tests used:
[1] = target: T1, human NHE-3 protein (expressed in the LAP1 cell line) (Homo sapiens, UniProt P48764); assay: Inhibition of sodium/proton exchanger subtype 3: recovery of intracellular pH after acidification (BCECF fluorescence); format: cell-based; conditions: pHi recovery as percentage of the maximum recovery, read-out: remaining activity of hNHE3
T1 construct: expressed in transfected cells; host or cells: LAP1 cell line
T1 sequence (P48764 26-834): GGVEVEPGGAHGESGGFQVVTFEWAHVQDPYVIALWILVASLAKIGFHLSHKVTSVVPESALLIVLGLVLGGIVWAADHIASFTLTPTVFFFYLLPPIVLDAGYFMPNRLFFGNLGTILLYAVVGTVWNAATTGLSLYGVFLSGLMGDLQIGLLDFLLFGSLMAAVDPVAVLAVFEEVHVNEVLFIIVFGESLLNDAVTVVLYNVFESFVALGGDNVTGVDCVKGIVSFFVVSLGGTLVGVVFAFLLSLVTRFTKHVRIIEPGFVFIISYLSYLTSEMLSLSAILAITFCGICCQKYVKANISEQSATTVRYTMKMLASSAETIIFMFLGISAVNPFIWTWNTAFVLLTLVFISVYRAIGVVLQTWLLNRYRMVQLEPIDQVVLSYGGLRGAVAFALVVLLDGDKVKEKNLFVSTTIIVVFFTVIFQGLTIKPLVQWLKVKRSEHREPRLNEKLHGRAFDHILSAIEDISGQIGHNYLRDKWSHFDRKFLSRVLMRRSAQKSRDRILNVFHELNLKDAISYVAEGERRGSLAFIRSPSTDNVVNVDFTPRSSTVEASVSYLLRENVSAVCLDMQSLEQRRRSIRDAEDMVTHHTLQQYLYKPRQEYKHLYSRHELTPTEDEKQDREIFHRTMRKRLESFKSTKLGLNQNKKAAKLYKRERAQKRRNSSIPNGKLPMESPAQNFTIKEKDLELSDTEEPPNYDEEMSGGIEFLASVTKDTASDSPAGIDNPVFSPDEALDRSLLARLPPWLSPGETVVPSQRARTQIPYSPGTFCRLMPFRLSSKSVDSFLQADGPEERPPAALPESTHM
Experimental: Biological testing of the novel compounds was accomplished by measuring inhibition of the sodium/proton exchanger subtype 3.
The remaining activity of the human NHE-3 protein (expressed in the LAP1 cell line) was determined by measuring the recovery in the intracellular pH (pHi) after an acidification, which starts when the NHE is capable of functioning, even under bicarbonate-free conditions. For this purpose, the pHi was determined using the pH-sensitive fluorescent dye BCECF (Calbiochem, the precursor BCECF-AM is employed). The cells were initially loaded with BCECF. […] The intracellular acidification was induced by addition of 975 μl of an NH4Cl-free buffer (see below) to 25 μl aliquots of the cells incubated in NH4Cl buffer. The subsequent rate of pH recovery was recorded for 3 minutes. To calculate the inhibitory power of the substances tested, the cells were initially investigated in buffers in which complete or absolutely no pH recovery took place. […] Test solutions of the substances of interest were made up in the Na^+-containing buffer. Recovery of the intracellular pH at the tested concentration of a substance was expressed as a percentage of the maximum recovery.

SMILES | melting point | remaining activity at 30 µM [1] [%]
CC(=O)c1c(C)nc2ccccc2c1NCc1cccc(CCC2(O)CC[C@@]3(C)C(CC(O)C4C3CC(O)[C@@]3(C)C4CC[C@@H]3[C@H](C)CCC(=O)O)C2)c1 (stereo partly drawn) [Example 14, 2-Methyl-3-acetyl-4-{3-[1-(3α,7α,12α-trihydroxy-10β,13β-dimethyl-17β-(3-carboxy-1-methylpropyl)hexadecahydrocyclopenta[a]phenanthren-3-yl)eth-2-yl]benzylamino}quinoline] | > 170 °C (dec.) | 52
Cc1nc2ccccc2c(NCc2ccc(C#CC3(O)CCC4(C)C(CC(O)C5C4CC(O)C4(C)C5CC[C@@H]4C(C)CCC(=O)O)C3)cc2)c1C(=O)OC(C)C (some centres unmarked) | 150 °C | 
Cc1nc2ccccc2c(NCc2ccccc2)c1C(=O)NCCOC1CCC2(C)C(C1)CC(O)C1C2CC(O)C2(C)C1CC[C@@H]2C(C)CCC(=O)NCCS(=O)(=O)O (some centres unmarked) (as salt: trifluoroacetate) | 180 °C | 
COC(=O)c1c(C)nc2ccc(CCC3(O)CCC4(C)C(CC(O)C5C4CC(O)C4(C)C5CC[C@@H]4C(C)CCC(=O)O)C3)cc2c1NCc1ccccc1 (some centres unmarked) | > 185 °C (dec.) | 
CCc1nc2ccccc2c(NCc2ccc(CCC3(O)CCC4(C)C(CC(O)C5C4CC(O)C4(C)C5CC[C@@H]4C(C)CCC(=O)O)C3)cc2)c1C(=O)OC (some centres unmarked) | > 190 °C (dec.) | 
Cc1nc2ccccc2c(NCc2ccccc2)c1C(=O)NCCOC1CCC2(C)C(C1)CC(O)C1C2CC(O)C2(C)C1CC[C@@H]2C(C)CCC(=O)O (some centres unmarked) | 143 °C | 
CC(=O)c1c(C)nc2ccccc2c1NCc1ccc(C(=O)NCCO[C@H]2CC[C@@]3(C)C(C2)C[C@@H](O)C2C3C[C@H](O)[C@@]3(C)C2CC[C@@H]3[C@H](C)CCC(=O)O)cc1 (stereo partly drawn) [Example 20, 4-[3β-(2-{4-[(3-Acetyl-2-methylquinolin-4-ylamino)methyl]benzoylamino)-ethoxy)-7α,12α-dihydroxy-10β,13β-dimethylhexadecahydrocyclopenta[a]phenanthren-17β-yl]pentanoic acid] | > 145 °C (dec.) | 56
CC(=O)c1c(C)nc2ccccc2c1NCc1cccc(C#CC2(O)CC[C@@]3(C)C(CC(O)C4C3CC(O)[C@@]3(C)C4CC[C@@H]3[C@H](C)CCC(=O)O)C2)c1 (stereo partly drawn) [Example 13, 2-Methyl-3-acetyl-4-{3-[1-(3α,7α,12α-trihydroxy-10β,13β-dimethyl-17β-(3-carboxy-1-methylpropyl)hexadecahydrocyclopenta[a]phenanthren-3-yl)ethyn-2-yl]benzylamino}quinoline] | > 195 °C (dec.) | 40
COC(=O)c1c(C)nc2ccc(C#CC3(O)CCC4(C)C(CC(O)C5C4CC(O)C4(C)C5CC[C@@H]4C(C)CCC(=O)O)C3)cc2c1NCc1ccccc1 (some centres unmarked) | 223 °C (dec.) | 
COC(=O)c1c(C)nc2cccc(C)c2c1NCc1ccc(C#CC2(O)CCC3(C)C(CC(O)C4C3CC(O)C3(C)C4CC[C@@H]3C(C)CCC(=O)O)C2)cc1 (stereo partly drawn) [Example 11, Methyl 2,5-dimethyl-4-{4-[1-(3α,7α,12α-trihydroxy-10β,13β-dimethyl-17β-(3-carboxy-1-methylpropyl)hexadecahydrocyclopenta[a]phenanthren-3-yl)ethyn-2-yl]benzylamino}quinoline-3-carboxylate] | > 155 °C | 61
